Patent US10829501B2 (BRISTOL-MYERS SQUIBB COMPANY, priority 2016, dated 2020)
pIC50: −log10 of the molar value. Structures can show the parent of a compound that is named as a salt. Where two headings read alike, the source gives them in different places.

Target: ROCK2 (Homo sapiens, UniProt O75116)
Test: ROCK2 kinase inhibition assay (LABCHIP 3000 Reader, FITC peptide substrate);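 also: rho kinase reaction read by separating phosphorylated from unphosphorylated peptide on chip, with inhibition of kinase activity computed per concentration across a dose-response series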
[1] = read-out: ROCK2 Activity (ROCK2 IC50), 5 μM ATP, 1.5 μM peptide substrate, pH 7.5

ROCK2, sequence (O75116 whole entry, species assumed): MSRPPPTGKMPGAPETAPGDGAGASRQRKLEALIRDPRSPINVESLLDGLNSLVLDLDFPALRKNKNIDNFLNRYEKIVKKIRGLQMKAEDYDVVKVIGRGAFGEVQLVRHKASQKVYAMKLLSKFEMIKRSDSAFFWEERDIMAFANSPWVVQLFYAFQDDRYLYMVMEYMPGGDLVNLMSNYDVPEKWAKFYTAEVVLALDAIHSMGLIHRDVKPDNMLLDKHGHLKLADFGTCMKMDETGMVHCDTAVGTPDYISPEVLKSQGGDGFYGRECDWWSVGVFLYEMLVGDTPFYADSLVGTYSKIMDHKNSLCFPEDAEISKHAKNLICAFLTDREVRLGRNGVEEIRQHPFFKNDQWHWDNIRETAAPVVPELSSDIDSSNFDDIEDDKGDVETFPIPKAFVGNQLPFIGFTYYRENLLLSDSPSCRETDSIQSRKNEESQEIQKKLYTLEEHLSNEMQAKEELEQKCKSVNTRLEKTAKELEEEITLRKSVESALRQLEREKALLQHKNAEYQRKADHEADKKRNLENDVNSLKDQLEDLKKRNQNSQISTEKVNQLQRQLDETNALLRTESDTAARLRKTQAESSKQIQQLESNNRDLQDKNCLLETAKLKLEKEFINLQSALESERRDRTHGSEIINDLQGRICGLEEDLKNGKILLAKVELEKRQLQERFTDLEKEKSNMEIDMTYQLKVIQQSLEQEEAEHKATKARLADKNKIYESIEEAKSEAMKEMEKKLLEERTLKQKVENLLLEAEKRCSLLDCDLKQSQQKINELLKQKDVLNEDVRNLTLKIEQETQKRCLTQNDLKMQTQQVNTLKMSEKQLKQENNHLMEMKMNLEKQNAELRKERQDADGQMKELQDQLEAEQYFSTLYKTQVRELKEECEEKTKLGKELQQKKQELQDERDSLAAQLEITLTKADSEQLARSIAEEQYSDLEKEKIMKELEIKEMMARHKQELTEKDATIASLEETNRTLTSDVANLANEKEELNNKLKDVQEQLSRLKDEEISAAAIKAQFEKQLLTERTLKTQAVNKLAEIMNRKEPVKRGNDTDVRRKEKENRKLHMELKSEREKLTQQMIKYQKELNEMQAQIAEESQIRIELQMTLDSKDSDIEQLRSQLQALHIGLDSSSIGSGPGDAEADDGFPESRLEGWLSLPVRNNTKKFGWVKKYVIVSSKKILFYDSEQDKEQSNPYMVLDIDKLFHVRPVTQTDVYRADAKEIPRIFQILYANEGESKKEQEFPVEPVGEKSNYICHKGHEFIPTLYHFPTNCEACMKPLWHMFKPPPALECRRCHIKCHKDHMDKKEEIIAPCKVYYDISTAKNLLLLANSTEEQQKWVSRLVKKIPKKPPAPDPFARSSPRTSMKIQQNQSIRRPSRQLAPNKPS

Structure (SMILES)	pIC50	pIC50 [1]
CC(C)(O)COc1ccc2c(C(=O)N[C@H]3CC4(C3)C[C@H](Oc3ncccc3C(N)=O)C4)nn(C(F)F)c2c1 (stereo partly drawn) [Example 108, N-((aR)-6-((3-carbamoylpyridin-2-yl)oxy)spiro[3.3]heptan-2-yl)-1-(difluoromethyl)-6-(2-hydroxy-2-methylpropoxy)-1H-indazole-3-carboxamide, trifluoroacetate]	> 8.30	–
CS(=O)(=O)c1cccc(C(=O)N[C@H]2CC3(C2)C[C@H](Oc2ncccc2C(N)=O)C3)c1 (stereo partly drawn) [Example 109, 2-((aR)-6-(3-(methylsulfonyl)benzamido)spiro[3.3]heptan2-- yl)oxy)nicotinamide, trifluoroacetate]	6.60 to 7.30	–
CC(C)(C)c1ccnc(C(=O)N[C@H]2CC3(C2)C[C@H](Oc2ncccc2C(N)=O)C3)c1 (stereo partly drawn) [Example 110, 4-(tert-butyl)-N-((aR)-6-((3-carbamoylpyridin-2-yl)oxy)spiro[3.3]heptan-2-yl)picolinamide, bis-trifluoroacetate]	7.30 to 8.30	–
[2H]C([2H])([2H])n1cc(-c2ccc3c(C(=O)N[C@H]4CC5(C4)C[C@H](Oc4ncccc4C(N)=O)C5)nn(C(F)F)c3c2)cn1 (stereo partly shown) [Example 111, 1-(difluoromethyl)-6-[1-(^2H3)methyl-1H-pyrazol-4-yl]-N-[(4s)-6-[(3-carbamoylpyridin-2-yl)oxy]spiro[3.3]heptan-2-yl]-1H-indazole-3-carboxamide, trifluoroacetate]	> 8.30	–
NC(=O)c1cccnc1O[C@H]1CC2(C[C@H](NC(=O)c3nn(C(F)F)c4cc(-c5cnn(C(F)F)c5)ccc34)C2)C1 (stereo partly drawn) [Example 112, N-((aR)-6-((3-carbamoylpyridin-2-yl)oxy)spiro[3.3]heptan-2-yl)-1-(difluoromethyl)-6-(1-(difluoromethyl)-1H-pyrazol-4-yl)-1H-indazole-3-caroxamide, trifluoroacettate]	> 8.30	–
CC(C)(C)c1cc(C(=O)N[C@H]2CC3(C2)C[C@H](Oc2ncccc2C(N)=O)C3)n(CC(F)F)n1 (stereo partly drawn) [Example 113, 2-((aR)-6-(3-(tert-butyl)-1-(2,2-difluoroethyl)-1H-pyrazole-5-carboxamido)spiro[3.3]heptan-2-yl)oxy) nicotinamide, trifluoroacetate]	5.60 to 6.60	–
CC(C)(C)c1cc(C(=O)N[C@H]2CC3(C2)C[C@H](Oc2ncccc2C(N)=O)C3)n(CCC(F)(F)F)n1 (stereo partly drawn) [Example 114, 2-((aR)-6-(3-(tert-butyl)-1-(3,3,3-trifluoropropyl)-1H-pyrazole-5-carboxamido)spiro [3.3]heptan-2-yl)oxy) nicotinamide, trifluoroacetate]	5.60 to 6.60	–
NC(=O)c1cccnc1O[C@H]1CC2(C[C@H](NC(=O)c3cnn4c(CCC(F)(F)F)c(OCCC(F)(F)F)ccc34)C2)C1 (stereo partly drawn) [Example 115, N-((aR)-6-((3-carbamoylpyrdin-2-yl)oxy)spiro[3.3]heptan-2-yl)-6-(3,3,3-trifluoropropoxy)-7-(3,3,3-trifluoropropyl) pyrazolo[1,5-a]pyridine-3-carboxamdie, trifluoroacetate]	7.30 to 8.30	–
NC(=O)c1cccnc1OC1CC2(CC(NC(=O)c3nn(CCC(F)(F)F)c4cc(OCCC(F)(F)F)ccc34)C2)C1 [Example 117, N-((aR)-6-((3-carbamoylpyridin-2-yl)oxy)spiro[3.3]heptan-2-yl)-6-(3,3,3-trifluoropropoxy)-1-(3,3,3-trifluoropropyl)-1H-indazole-3-carboxamide, trifluoroacetate]	–	7.30 to 8.30
NC(=O)c1cccnc1O[C@H]1CC2(C[C@H](NC(=O)c3cnn4cc(CCC(F)(F)F)ccc34)C2)C1 (stereo partly drawn) [Example 118, N-((aR)-6-((3-carbamoylpyridin-2-yl)oxy)spiro[3.3]heptan-2-yl)-6-(3,3,3-trifluoropropyl) pyrazolo[1,5-a[pyridine-3-carboxamide, trifluoroacetate]	7.30 to 8.30	–
CS(=O)(=O)c1cc(Br)cc(C(=O)NC2CC3(C2)CC(Oc2ncccc2C(N)=O)C3)c1 [Example 119, 2-((aR)-6-(3-bromo-5-(methylsulfonyl)benzamido)spiro[3.3]heptan-2-yl)oxy) nicotinamide, trifluoroacetate]	–	7.30 to 8.30
NC(=O)c1cccnc1O[C@H]1CC2(C[C@H](NC(=O)c3cnn4cc(OCCn5ccnc5)ccc34)C2)C1 (stereo partly drawn) [Example 120, 6-(2-(1H-imidazol-1-yl)ethoxy)-N-((aR)-6-((3-carbamoylpyridin-2-yl)oxy)spiro[3.3]heptan-2-yl)pyrazolo[1,5-a]pyridine-3-carboxamdie, trifluoroacetate]	7.30 to 8.30	–
COCCOCCOc1ccc2c(C(=O)N[C@H]3CC4(C3)C[C@H](Oc3ncccc3C(N)=O)C4)cnn2c1 (stereo partly drawn) [Example 121, N-((aR)-6-((3-carbamoylpyridin-2-yl)oxy)spiro[3.3]heptan-2-yl)-6-(2-(2-methoxyethoxy)ethoxy)pyrazolo [1,5-a]pyridine-3-carboxamide, trifluoroacetate]	7.30 to 8.30	–
NC(=O)c1cccnc1O[C@H]1CC2(C[C@H](NC(=O)c3cnn4cc(OCCCC(F)(F)F)ccc34)C2)C1 (stereo partly drawn) [Example 122, N-((aR)-6-((3-carbamoylpyridin-2-yl)oxy)spiro[3.3]heptan-2-yl)-6-(4,4,4-trifluorobutoxy) pyrazolo[1,5-a]pyridine-3-carboxamide, trifluoroacetate]	7.30 to 8.30	–
NC(=O)c1cccnc1O[C@H]1CC2(C[C@H](NC(=O)c3cnn4cc(OCCCN5CCCC5=O)ccc34)C2)C1 (stereo partly drawn) [Example 124, N-((aR)-6-((3-carbamoylpyridin-2-yl)oxy)spiro[3.3]heptan-2-yl)-6-(3-(2-oxopyrrolidin-1-yl)propoxy) pyrazolo[1,5-a]pyridine-3-carboxamide, trifluoroacetate]	7.30 to 8.30	–
NC(=O)c1cccnc1O[C@H]1CC2(C[C@H](NC(=O)c3cnn4cc(OCCOC(F)(F)F)ccc34)C2)C1 (stereo partly drawn) [Example 125, N-((aR)-6-((3-carbamoylpyridin-2-yl)oxy)spiro[3.3]heptan-2-yl)-6-(2-(trifluoromethoxy)ethoxy) pyrazolo[1,5-a] pyridine-3-carboxamide, t rifluoroacetate]	7.30 to 8.30	–
NC(=O)c1cccnc1O[C@H]1CC2(C[C@H](NC(=O)c3cnn4cc(OCC[C@H]5COC(=O)N5)ccc34)C2)C1 (stereo partly drawn) [Example 126, N-((aR)-6-((3-carbamoylpyridin-2-yl)oxy)spiro[3.3]heptan-2-yl)-6-(2-((S)-2-oxoxazolidin-4-yl)ethoxy) pyrazolo[1,5-a]pyridine-3-carboxamdie, trifluoroacetate]	> 8.30	–
CC(C)(O)COc1ccc2c(C(=O)N[C@H]3CC4(C3)C[C@H](Oc3ncccc3C(N)=O)C4)nn(CC(C)(C)O)c2c1 (stereo partly drawn) [Example 127, N-((aR)-6-((3-carbamoylpyridin-2-yl)oxy)spiro[3.3]heptan-2-yl)-6-(2-hydroxy-2-methylpropoxy)-1-(2-hydroxy-2-methylpropyl)-1H-indazole-3-carboxamide, trifluoroacetate]	7.30 to 8.30	–
Cc1ncsc1CCOc1ccc2c(C(=O)N[C@H]3CC4(C3)C[C@H](Oc3ncccc3C(N)=O)C4)cnn2c1 (stereo partly drawn) [Example 128, N-((aR)-6-((3-carbamoylpyridin-2-yl)oxy)spiro[3.3]heptan-2-yl)-6-(2-(4-methylthiazol-5-yl)ethoxy) pyrazolo[1,5-a]pyridine-3-carboxamide, trifluoroacetate]	7.30 to 8.30	–
